Test results reported in patent US20250206732A1, “COMPOUNDS AND METHODS FOR THE TARGETED DEGRADATION OF KRAS” (Arvinas Operations, Inc., priority 2022, published 2025).

Molecular target: T1, AsPC-1 HiBiT-KRASG12D (Homo sapiens, UniProt P01116, G12D)
T1 construct: insert the HiBiT tag onto the N-terminus of one or more of the endogenous KRAS alleles; endogenous in cells; host or cells: AsPC-1 (ATCC CRL-1682), CRISPR-Cas9 knock-in clone, one tagged allele
Assay: HiBiT degradation assay (G12D), AsPC-1 HiBiT-KRASG12D cells
Type: cell-based
Details: 24 hours treatment; for Dmax: ASPC1, AsPC-1 HiBiT-KRASG12D cells, maximum degradation observed; for DC50: AsPC-1 HiBiT-KRASG12D cells, HiBiT luminescence
How it was run: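 Steps: treat HiBiT-KRASG12D AsPC-1 cells with compound for 24 hours; add alamar blue to 1× and incubate 4 hours to assess viability; wash with PBS; add HiBiT lytic detection reagent, incubate 45 minutes at room temperature; read luminescence. Viability fluorescence is normalized to DMSO wells.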

T1 sequence (P01116 1-188 isoform P01116-2 G12D): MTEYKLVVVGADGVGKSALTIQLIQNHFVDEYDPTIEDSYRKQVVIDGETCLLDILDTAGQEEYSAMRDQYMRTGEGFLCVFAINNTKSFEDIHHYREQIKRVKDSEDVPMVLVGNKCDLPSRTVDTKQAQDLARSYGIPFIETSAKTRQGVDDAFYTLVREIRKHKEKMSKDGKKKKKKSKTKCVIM

Compound | Dmax | DC50
CCc1cccc2cc(O)cc(-c3ncc4c(N5CC6CCC(C5)N6)nc(OCCN5CCC(F)(COc6cc([C@H](C(=O)N7C[C@H](O)C[C@H]7C(=O)N[C@@H](C)c7ccc(-c8scnc8C)cc7)C(C)C)on6)CC5)nc4c3F)c12 [Compound 337, (2S,4R)-1-[(2R)-2-{3-[(1-{2-[(4-{3,8-diazabicyclo[3.2.1]octan-3-yl}-7-(8-ethyl-3-hydroxynaphthalen-1-yl)-8-fluoropyrido[4,3-d]pyrimidin-2-yl)oxy]ethyl}-4-fluoropiperidin-4-yl)methoxy]-1,2-oxazol-5-yl}-3-methylbutanoyl]-4-hydroxy-N-[(1S)-1-[4-(4-methyl-1,3-thiazol-5-yl)phenyl]ethyl]pyrrolidine-2-carboxamide] | 80 to 100% | < 600 nM
C#Cc1c(F)ccc2cc(O)cc(-c3ncc4c(N5CC6CCC(C5)N6)nc(OCCN5CCC(CC6CCN(c7cc([C@@H](C(=O)N8C[C@H](O)C[C@H]8C(=O)N[C@@H](C)c8ccc(-c9ccnn9C)cc8)C(C)C)on7)CC6)CC5)nc4c3F)c12 [Compound 169, (2S,4R)-1-[(2S)-2-(3-{4-[(1-{2-[(4-{3,8-diazabicyclo[3.2.1]octan-3-yl}-7-(8-ethynyl-7-fluoro-3-hydroxynaphthalen-1-yl)-8-fluoropyrido[4,3-d]pyrimidin-2-yl)oxy]ethyl}piperidin-4-yl)methyl]piperidin-1-yl}-1,2-oxazol-5-yl)-3-methylbutanoyl]-4-hydroxy-N-[(1S)-1-[4-(1-methyl-1H-pyrazol-5-yl)phenyl]ethyl]pyrrolidine-2-carboxamide] | 20 to 60% | 600 to 1000 nM
CCc1cccc2cc(O)cc(-c3ncc4c(N5CC6CCC(C5)N6)nc(OCCN5CCC[C@@H](CN6CCN(c7cc([C@H](C(=O)N8C[C@H](O)C[C@H]8C(=O)N[C@@H](C)c8ccc(-c9scnc9C)cc8)C(C)C)on7)CC6)C5)nc4c3F)c12 [Compound 228] | 80 to 100% | < 600 nM
CCc1cccc2cc(O)cc(-c3ncc4c(N5CC6CCC(C5)N6)nc(OC[C@@]56CCCN5[C@H](CN5CCC(F)(COc7cc([C@@H](C(=O)N8C[C@H](O)C[C@H]8C(=O)N[C@@H](C)c8ccc(-c9scnc9C)cc8)C(C)C)on7)CC5)CC6)nc4c3F)c12 [Compound 336, (2S,4R)-1-[(2S)-2-[3-[[1-[[(3S,8S)-8-[[4-(3,8-diazabicyclo[3.2.1]octan-3-yl)-7-(8-ethyl-3-hydroxy-1-naphthyl)-8-fluoro-pyrido[4,3-d]pyrimidin-2-yl]oxymethyl]-1,2,3,5,6,7-hexahydropyrrolizin-3-yl]methyl]-4-fluoro-4-piperidyl]methoxy]isoxazol-5-yl]-3-methyl-butanoyl]-4-hydroxy-N-[(1S)-1-[4-(4-methylthiazol-5-yl)phenyl]ethyl]pyrrolidine-2-carboxamide] | 20 to 60% | 1000 to 3000 nM
CCc1cccc2cc(O)cc(-c3ncc4c(N5CC6CCC(C5)N6)nc(OCCN5CCC(F)(CN6CCN(c7cc([C@@H](C(=O)N8C[C@H](O)C[C@H]8C(=O)N[C@@H](C)c8ccc(-c9scnc9C)cc8)C(C)C)on7)C[C@H]6C)CC5)nc4c3F)c12 [Compound 195, (2S,4R)-1-[(2S)-2-{3-[(3R)-4-[(1-{2-[(4-{3,8-diazabicyclo[3.2.1]octan-3-yl}-7-(8-ethyl-3-hydroxynaphthalen-1-yl)-8-fluoropyrido[4,3-d]pyrimidin-2-yl)oxy]ethyl}-4-fluoropiperidin-4-yl)methyl]-3-methylpiperazin-1-yl]-1,2-oxazol-5-yl}-3-methylbutanoyl]-4-hydroxy-N-[(1S)-1-[4-(4-methyl-1,3-thiazol-5-yl)phenyl]ethyl]pyrrolidine-2-carboxamide] | < 20% | 1000 to 3000 nM
CCc1cccc2cc(O)cc(-c3ncc4c(N5CC6CCC(C5)N6)nc(OC[C@@]56CCCN5[C@H](CN5CCC7(CC5)CN(c5cc([C@H](C(=O)N8C[C@H](O)C[C@H]8C(=O)N[C@@H](C)c8ccc(-c9scnc9C)cc8)C(C)C)on5)C7)CC6)nc4c3F)c12 [Compound 88, (2S,4R)-1-[(2R)-2-[3-(7-{[(3S,7aS)-7a-{[(4-{3,8-diazabicyclo[3.2.1]octan-3-yl}-7-(8-ethyl-3-hydroxynaphthalen-1-yl)-8-fluoropyrido[4,3-d]pyrimidin-2-yl)oxy]methyl}-hexahydro-1H-pyrrolizin-3-yl]methyl}-2,7-diazaspiro[3.5]nonan-2-yl)-1,2-oxazol-5-yl]-3-methylbutanoyl]-4-hydroxy-N-[(1S)-1-[4-(4-methyl-1,3-thiazol-5-yl)phenyl]ethyl]pyrrolidine-2-carboxamide] | 80 to 100% | < 600 nM
Cc1ncsc1-c1ccc([C@H](C)NC(=O)[C@@H]2C[C@@H](O)CN2C(=O)[C@@H](c2cc(OCC3CCN(CCOc4nc(N5CC6CCC(C5)N6)c5cnc(-c6cc(O)cc7cccc(C)c67)c(F)c5n4)CC3)no2)C(C)C)cc1 [Compound 60, (2S,4R)-1-[(2R)-2-{3-[(1-{2-[(4-{3,8-diazabicyclo[3.2.1]octan-3-yl}-8-fluoro-7-(3-hydroxy-8-methylnaphthalen-1-yl)pyrido[4,3-d]pyrimidin-2-yl)oxy]ethyl}piperidin-4-yl)methoxy]-1,2-oxazol-5-yl}-3-methylbutanoyl]-4-hydroxy-N-[(1S)-1-[4-(4-methyl-1,3-thiazol-5-yl)phenyl]ethyl]pyrrolidine-2-carboxamide] | 60 to 80% | < 600 nM
CCc1cccc2cc(O)cc(-c3ncc4c(N5CC6CCC(C5)N6)nc(OCCN5CC[C@H]6CN(c7cc([C@@H](C(=O)N8C[C@H](O)C[C@H]8C(=O)N[C@@H](C)c8ccc(-c9scnc9C)cc8)C(C)C)on7)C[C@H]6C5)nc4c3F)c12 (relative stereo) [Compound 70, (2S,4R)-1-[(2R*)-2-{3-[(3aR**,7aR***)-5-{2-[(4-{3,8-diazabicyclo[3.2.1]octan-3-yl}-7-(8-ethyl-3-hydroxynaphthalen-1-yl)-8-fluoropyrido[4,3-d]pyrimidin-2-yl)oxy]ethyl}-octahydro-1H-pyrrolo[3,4-c]pyridin-2-yl]-1,2-oxazol-5-yl}-3-methylbutanoyl]-4-hydroxy-N-[(1S)-1-[4-(4-methyl-1,3-thiazol-5-yl)phenyl]ethyl]pyrrolidine-2-carboxamide] | – | > 3000 nM
CCc1cccc2cc(O)cc(-c3ncc4c(N5CC6CCC(C5)N6)nc(OCCN5CCC(Oc6cc([C@H](C(=O)N7C[C@H](O)C[C@H]7C(=O)N[C@@H](C)c7ccc(-c8scnc8C)cc7)C(C)C)on6)CC5)nc4c3F)c12 (relative stereo) [Compound 138, (2S,4R)-1-[(2R*)-2-{3-[(1-{2-[(4-{3,8-diazabicyclo[3.2.1]octan-3-yl}-7-(8-ethyl-3-hydroxynaphthalen-1-yl)-8-fluoropyrido[4,3-d]pyrimidin-2-yl)oxy]ethyl}piperidin-4-yl)oxy]-1,2-oxazol-5-yl}-3-methylbutanoyl]-4-hydroxy-N-[(1S)-1-[4-(4-methyl-1,3-thiazol-5-yl)phenyl]ethyl]pyrrolidine-2-carboxamide] | 80 to 100% | < 600 nM
CCc1cccc2cc(O)cc(-c3ncc4c(N5CC6CCC(C5)N6)nc(N5CC(N6CCC(CC7CN(c8cc([C@@H](C(=O)N9C[C@H](O)C[C@H]9C(=O)N[C@@H](C)c9ccc(-c%10scnc%10C)cc9)C(C)C)on8)C7)CC6)C5)nc4c3F)c12 [Compound 180] | – | > 3000 nM
CCc1cccc2cc(O)cc(-c3ncc4c(N5CC6CCC(C5)N6)nc(OCCN5C[C@@H]6CN(c7cc(C(C(=O)N8C[C@H](O)C[C@H]8C(=O)N[C@@H](C)c8ccc(-c9scnc9C)cc8)C(C)C)on7)C[C@@H]6C5)nc4c3F)c12 (relative stereo) [Compound 80, (2S,4R)-1-[(2R*)-2-{3-[(3aR,6aS)-5-{2-[(4-{3,8-diazabicyclo[3.2.1]octan-3-yl}-7-(8-ethyl-3-hydroxynaphthalen-1-yl)-8-fluoropyrido[4,3-d]pyrimidin-2-yl)oxy]ethyl}-octahydropyrrolo[3,4-c]pyrrol-2-yl]-1,2-oxazol-5-yl}-3-methylbutanoyl]-4-hydroxy-N-[(1S)-1-[4-(4-methyl-1,3-thiazol-5-yl)phenyl]ethyl]pyrrolidine-2-carboxamide] | 80 to 100% | < 600 nM
CCc1cccc2cc(O)cc(-c3ncc4c(N5CC6CCC(C5)N6)nc(N5CC(CN6CCC(CC7CN(c8cc([C@H](C(=O)N9C[C@H](O)C[C@H]9C(=O)N[C@@H](C)c9ccc(-c%10scnc%10C)cc9)C(C)C)on8)C7)CC6)C5)nc4c3F)c12 [Compound 182, (2S,4R)-1-[(2R)-2-(3-{3-[(1-{[1-(4-{3,8-diazabicyclo[3.2.1]octan-3-yl}-7-(8-ethyl-3-hydroxynaphthalen-1-yl)-8-fluoropyrido[4,3-d]pyrimidin-2-yl)azetidin-3-yl]methyl}piperidin-4-yl)methyl]azetidin-1-yl}-1,2-oxazol-5-yl)-3-methylbutanoyl]-4-hydroxy-N-[(1S)-1-[4-(4-methyl-1,3-thiazol-5-yl)phenyl]ethyl]pyrrolidine-2-carboxamide] | 20 to 60% | < 600 nM
CCc1cccc2cc(O)cc(-c3ncc4c(N5CC6CCC(C5)N6)nc(OCCN5CCC(CC6CCN(c7cc([C@@H](C(=O)N8C[C@H](O)C[C@H]8C(=O)N[C@@H](C)c8ccc(-c9ccnn9C)cc8)C(C)C)on7)CC6)CC5)nc4c3F)c12 [Compound 210, (2S,4R)-1-[(2S)-2-(3-{4-[(1-{2-[(4-{3,8-diazabicyclo[3.2.1]octan-3-yl}-7-(8-ethyl-3-hydroxynaphthalen-1-yl)-8-fluoropyrido[4,3-d]pyrimidin-2-yl)oxy]ethyl}piperidin-4-yl)methyl]piperidin-1-yl}-1,2-oxazol-5-yl)-3-methylbutanoyl]-4-hydroxy-N-[(1S)-1-[4-(1-methyl-1H-pyrazol-5-yl)phenyl]ethyl]pyrrolidine-2-carboxamide] | 20 to 60% | 600 to 1000 nM
